Assays:
Assay in all cases: relative viability (nuclei count vs DMSO), 5 days (fraction); higher = more cells survive
Carfilzomib + Olaparib = compound: CC(C)C[C@H](NC(=O)[C@H](CCc1ccccc1)NC(=O)CN1CCOCC1)C(=O)N[C@@H](Cc1ccccc1)C(=O)N[C@@H](CC(C)C)C(=O)[C@@]1(C)CO1 [Carfilzomib] + O=C(c1cc(Cc2n[nH]c(=O)c3ccccc23)ccc1F)N1CCN(C(=O)C2CC2)CC1 [Olaparib] (partner 8 µM)
How it was run: (§1)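 Each reported value is a median over duplicate plates. It expresses relative viability: treated-well nuclei count divided by vehicle-well nuclei count. Lung cancer cell lines in 1536-well plates were dosed by pin tool a day after seeding, alone with one drug or with a fixed anchor-drug dose plus five library-drug doses (not always all listed) in √10 steps, and nuclei were counted after 5 days.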

Crizotinib + Foretinib = compound: C[C@@H](Oc1cc(-c2cnn(C3CCNCC3)c2)cnc1N)c1c(Cl)ccc(F)c1Cl [Crizotinib] + COc1cc2c(Oc3ccc(NC(=O)C4(C(=O)Nc5ccc(F)cc5)CC4)cc3F)ccnc2cc1OCCCN1CCOCC1 [Foretinib] (partner 0.25 µM)
How it was run: as §1

Crizotinib + Vorinostat = compound: C[C@@H](Oc1cc(-c2cnn(C3CCNCC3)c2)cnc1N)c1c(Cl)ccc(F)c1Cl [Crizotinib] + O=C(CCCCCCC(=O)Nc1ccccc1)NO [Vorinostat] (partner 1 µM)
How it was run: as §1

Carfilzomib + Pictilisib = compound: CC(C)C[C@H](NC(=O)[C@H](CCc1ccccc1)NC(=O)CN1CCOCC1)C(=O)N[C@@H](Cc1ccccc1)C(=O)N[C@@H](CC(C)C)C(=O)[C@@]1(C)CO1 [Carfilzomib] + CS(=O)(=O)N1CCN(Cc2cc3nc(-c4cccc5[nH]ncc45)nc(N4CCOCC4)c3s2)CC1 [Pictilisib] (partner 1 µM)
How it was run: as §1

Row | Cell Line | relative viability (Carfilzomib + Olaparib; first compound 0.001 µM) | relative viability (Carfilzomib + Olaparib; first compound 0.003162 µM) | relative viability (Carfilzomib + Olaparib; first compound 0.01 µM) | relative viability (Carfilzomib + Olaparib; first compound 0.03162 µM) | relative viability (Carfilzomib + Olaparib; first compound 0.1 µM) | relative viability (Crizotinib + Foretinib; first compound 0.01 µM) | relative viability (Crizotinib + Foretinib; first compound 0.03162 µM) | relative viability (Crizotinib + Foretinib; first compound 0.1 µM) | relative viability (Crizotinib + Foretinib; first compound 0.3162 µM) | relative viability (Crizotinib + Foretinib; first compound 1 µM) | relative viability (Crizotinib + Vorinostat; first compound 0.01 µM) | relative viability (Crizotinib + Vorinostat; first compound 0.03162 µM) | relative viability (Crizotinib + Vorinostat; first compound 0.1 µM) | relative viability (Crizotinib + Vorinostat; first compound 0.3162 µM) | relative viability (Crizotinib + Vorinostat; first compound 1 µM) | relative viability (Carfilzomib + Pictilisib; first compound 0.001 µM) | relative viability (Carfilzomib + Pictilisib; first compound 0.003162 µM) | relative viability (Carfilzomib + Pictilisib; first compound 0.01 µM) | relative viability (Carfilzomib + Pictilisib; first compound 0.03162 µM) | relative viability (Carfilzomib + Pictilisib; first compound 0.1 µM)
1 | 201T | 0.83 | 0.838 | 0.856 | 0.907 | 0.546 | 0.982 | 1.12 | 1.09 | 1.13 | 1.14 | 0.899 | 1.01 | 0.98 | 0.974 | 1.04 | 0.67 | 0.659 | 0.668 | 0.727 | 0.666
2 | A549 | 0.344 | 0.301 | 0.405 | 0.0248 | 0.0273 | 0.919 | 1.05 | 0.908 | 0.853 | 1.02 |  |  |  |  |  | 0.525 | 0.472 | 0.44 | 0.118 | 0.0573
3 | A-427 | 0.782 | 0.827 | 0.749 | 0.271 | 0.147 | 0.943 | 1.04 | 1.04 |  | 1.04 | 0.836 | 0.871 | 0.876 |  | 0.899 | 0.776 | 0.734 | 0.632 | 0.296 | 0.092
4 | ABC-1 | 0.768 | 0.846 | 0.348 | 0.324 | 0.26 |  | 1.02 | 1.05 | 1.31 | 1.09 | 1.04 | 1.06 | 1.22 |  | 1.02 | 0.691 | 0.471 | 0.237 | 0.249 | 0.216
5 | BEN | 1.02 | 1.29 | 1.18 | 1.03 | 0.376 | 0.866 | 0.732 | 0.644 | 0.332 | 0.633 | 0.553 | 0.55 | 0.628 | 0.506 | 0.573 | 0.635 | 0.679 | 0.587 | 0.523 | 0.249
6 | CAL-12T | 0.765 | 0.744 | 0.702 | 0.265 | 0.145 | 1.11 | 1.17 |  |  | 1.24 | 0.855 | 0.788 | 0.647 | 0.713 | 0.725 |  | 0.767 | 0.586 | 0.304 | 0.143
7 | COR-L23 | 0.392 | 0.435 | 0.36 | 0.0646 | 0.0712 | 0.862 | 1 | 0.89 | 1.06 | 1.07 | 0.43 | 0.418 | 0.484 | 0.4 | 0.471 | 0.756 | 0.806 | 0.678 | 0.0485 | 0.0565
8 | COR-L 105 | 0.704 | 0.735 | 0.716 | 0.465 | 0.301 | 1.07 | 1.02 | 1.12 | 0.797 | 1.15 | 0.824 | 0.96 | 0.696 | 0.858 | 0.893 | 0.414 | 0.437 | 0.346 | 0.289 | 0.23
9 | Calu-6 | 0.52 | 0.628 | 0.504 | 0.0906 | 0.0789 | 0.855 | 0.938 | 0.86 | 0.947 | 0.927 |  |  |  |  |  | 1.01 | 0.97 | 0.798 | 0.108 | 0.0567
10 | ChaGo-K-1 | 0.447 | 0.409 | 0.392 | 0.172 | 0.142 | 0.838 |  | 0.939 |  | 0.939 | 0.703 | 0.706 | 0.712 | 0.4 | 0.727 |  | 1.27 | 0.839 | 0.523 | 0.348
11 | EBC-1 | 0.721 | 0.63 | 0.191 | 0.0599 | 0.082 | 0.0852 | 0.1 | 0.107 | 0.112 | 0.104 |  |  |  |  |  | 0.407 | 0.347 | 0.192 | 0.0926 | 0.117
12 | EKVX | 0.854 | 0.908 | 1.02 |  | 0.231 | 0.772 | 0.752 | 0.717 | 0.444 | 0.991 | 0.455 | 0.662 | 0.708 | 0.712 | 0.637 | 0.443 | 0.492 | 0.542 | 0.476 | 0.169
13 | EMC-BAC-2 | 0.484 | 0.454 | 0.561 | 0.411 | 0.249 | 0.984 | 0.952 | 1.02 | 1.04 | 1.07 | 0.524 | 0.418 | 0.494 |  | 0.365 | 0.503 | 0.612 | 0.586 | 0.574 | 0.258
14 | EPLC-272H | 0.825 | 0.864 | 0.302 | 0.0584 | 0.0607 | 0.669 | 0.627 | 0.669 | 0.636 | 0.679 | 0.41 | 0.398 | 0.361 | 0.403 | 0.581 | 0.188 | 0.363 | 0.322 | 0.0934 | 0.0877
